Results on one molecule are retold here after paper PMC10977726 (PLOS ONE, 2024).

The conditions of data set [1]: 100% human serum, 0.2 mM DCP, 37°C, LC-MS, UV 220 nm peak area normalized to 0 h, three independent experiments.
A further data set concerns the target T1, human IgG Fc (Homo sapiens, UniProt P01857).
T1 construct: Biotin-SP-ChromPure Human IgG, Fc fragment; purchased Jackson Immunoresearch Labs Inc. 009060008
Kind of data set: Phage competition ELISA for epitope mapping (various synthetic DCPs vs phage displaying one DCP). The format is binding.

Regarding `CC[C@H](C)[C@@H]1NC(=O)[C@H](CO)NC(=O)[C@H]([C@@H](C)CC)NC(=O)[C@H](CO)NC(=O)[C@H](CO)NC(=O)[C@@H]2CSSC[C@@H]3NC(=O)[C@H](CO)NC(=O)CNC(=O)[C@H]([C@@H](C)O)NC(=O)[C@H](CSSC[C@H](NC(=O)[C@@H](N)CCC(=O)O)C(=O)N[C@@H](CCCCN)C(=O)NCC(=O)N[C@@H](CCCCN)C(=O)NCC(=O)N[C@@H](C)C(=O)N[C@@H](CCCCN)C(=O)N2)NC(=O)[C@H](CSSC[C@@H](C(=O)O)NC(=O)[C@H](CCCCN)NC(=O)CNC(=O)[C@H](CO)NC(=O)[C@H](CCCNC(=N)N)NC3=O)NC(=O)[C@H](Cc2c[nH]cn2)NC(=O)[C@H](C)NC(=O)[C@H](CC(=O)O)NC(=O)[C@H](Cc2c[nH]cn2)NC1=O` [Ig-CON-5], the “loss of peptides after 24 h” value in data set [1] is 40–50%. Further, the “inhibition of interaction between biotinylated hIgG Fc and phage displaying Ig-AMP-1” value at human IgG Fc (Fig 4D) is on record as “potently inhibited”. The “inhibition of interaction between human IgG Fc and phage displaying Ig-CON-5” value at human IgG Fc (Fig S15) is reported as “potently inhibited”.
